Assay results from patent US9518974B2, “Sensor system for detecting organophosphorus residues by inducing coagulation of gold nanoparticles” (priority 2014, dated 2016).

Target: EGFP (Aequorea victoria, UniProt P42212, F64L/H231L/S65T)
Assay: Influence of organophosphorus pesticide on activity (fluorescence) of EGFP
Conditions: pesticide 10 ppb to 10 ppm, excitation 480 nm, emission 510 nm, control 10% methanol

| SMILES | intensity of fluorescence of EGFP |
| --- | --- |
| CCOP(=O)(Sc1ccccc1)Sc1ccccc1 [edifenphos] | the same results |
| CC(C)OP(=O)(OC(C)C)SCc1ccccc1 [iprobenfos] | the same results |
